Measurements: PMC11726359, “Discovery of Rezatapopt (PC14586), a First-in-Class, Small-Molecule Reactivator of p53 Y220C Mutant in Development” (ACS Medicinal Chemistry Letters, 2024)

Legend:
[1] = biological target: T1, recombinant His-tag Y220C p53 DNA binding domain (Homo sapiens, UniProt P04637, Y220C); assay: TR-FRET DNA binding assay (SC150); format: biochemical
T1 construct: Y220C p53 DBD protein (amino acids #94-312); made in house
Text: At the outset of our hit generation campaign, several small molecules targeting the p53 Y220C mutant protein were identified. Two notable examples, supported by crystallographic data, were the compounds from the carbazole series[6] (PhiKan83) and the iodophenol series[7] (PK1596) (Figure 1). To assess the in vitro potency of the p53 Y220C reactivators, a time-resolved fluorescence resonance energy transfer (FRET) assay was developed. In this assay, recombinant His-tag Y220C p53 DNA binding domain binds to biotin-labeled consensus DNA, and the FRET signal is measured between the allophycocyanin-conjugated anti-His-tag antibody and europium-conjugated streptavidin. The […] concentration required to increase DNA binding by 1.5-fold (SC150) could then be determined. The carbazole compound (PhiKan83) enhanced DNA binding with an SC150 of 37.2 μM. […]
Time-Resolved Fluorescence Resonance Energy Transfer (TR-FRET) Assay
DNA binding activity was measured by the TR-FRET assay. In this assay, the recombinant His6-tag Y220C p53 DNA binding domain (DBD) protein binds to biotin labeled consensus DNA. The binding of recombinant His6-tag Y220C p53 DBD protein and biotin-labeled consensus DNA is detected by the fluorescence resonance energy transfer (FRET) between allophycocyanin (APC) conjugated anti-His6 tag antibody and Europium-(Eu) conjugated Streptavidin. Test compounds, at 2 mM stock in DMSO, were diluted t hr e e-f ol d in serial dilutions in DMSO and 1.2 µL per well were added into 384-well polypropylene black plates (NUNC). Subsequently, 30 µL per well of 181 nM recombinant His6-tag Y220C p53 DBD protein (amino acids #94-312) and 9.1 nM of APC conjugated anti-His6 tag antibody (Columbia Biosciences) in ice-cold Assay Buffer 1 (50 mM Tris-HCl, pH 7.4, 75 mM KCl, 0.75 mM DTT and 0.2 mg/mL bovine serum albumin [BSA]) was added. As a background control, 30 µL of Assay Buffer 1 containing 9.1 nM of APC anti-His6 antibody (no Y220C protein) was also added into a second set of serial diluted compound plates. The samples were centrifuged at 1,200 rpm (Eppendorf 5810R plate centrifuge) for 1 minute and incubated at room temperature (20 °C) for 15 min. The samples were then incubated at 27 °C in a water bath for 48 min. Afterwards, 5 µL per well of 145 nM biotin labeled oligonucleotide from a consensus DNA p53 response element (a DNA duplex with 5’ to 3’sequence of […]
and biotin attached to the 3’ end of the complementary DNA) and 8.8 nM Eu-conjugated streptavidin (Columbia Biosciences) in Assay Buffer 2 (50 mM Tris-HCl, pH 7.4, 75 mM KCl and 0.2 mg/mL BSA) were added. The samples were centrifuged at 1,200 rpm for 1 min and incubated at room temperature (20 °C) for 20 min. Assay signals were monitored by reading excitation at 340 nm, and emission fluorescence at 615 and 665 nm, on an Envision reader (Perkin El mer). Normalized TR -FRET assay signal (Rn) was calculated by the formula:
Rn = [(A − B a − C × (D − Bd))/(D − Bd)] × (Dc − B d),
C = (Ac − B a)/(Dc − B d), […]

[2] = system: NUGC-3, gastric cancer cell line with a TP53 Y220C mutation; assay: MTT cell proliferation assay; format: cell-based, human; settings: for IC50: Homo sapiens, NUGC-3, 120 h, NUGC-3 cells, five days incubation
Method: We also evaluated the effects of these compounds on the growth and viability of four cancer cell lines in vitro. Two of the cell lines (NUGC-3, gastric cancer cell line with a TP53 Y220C mutation and T3M-4, pancreatic carcinoma cell line) have the TP53 Y220C mutation leading to the p53 Y220C mutant protein; SJSA-1 is a p53 WT cell line, and NUGC-3-KO is an isogenic p53 knockout cell line.[11] After incubating the cells with the compounds for five days, cell viability was measured using the 3-(4,5-dimethylthiazol-2-yl)-2,5-diphenyltetrazolium bromide (MTT) assay.
C = (Ac − B a)/(Dc − B d),
Prism (GraphPad) or XLfit software (IDBS).
Cells were seeded at an appropriate
Compounds were tested at eight concentrations with 2-fold serial dilutions. […]
with a reference wavelength of 650 nm. […]
untreated cells (control). […]

[3] = Pharmacokinetic study in mice; settings: 50 mg/kg
Method: Pharmacokinetic parameters were evaluated in female CD-1 mice. Animals received an oral gavage dose of 50 mg/kg of the test article. The test article was formulated in a solution containing 2% hydroxypropyl
cellulose and 0.5% Tween 80 in water. Blood samples were collected at 0.5, 1, 2, 4, 7, and 24 h post dose.
Blood samples were processed into plasma, and the concentrations of the test article were determined by
LC-MS/MS. P harmacokinetic parameters were calculated using the Phoenix WinNonlin 6.3 program,
employing a non- compartmental model 200.

[4] = Table 2, concentration required to increase DNA binding by 1.5-fold
[5] = Table 1, concentration required to increase DNA binding by 1.5-fold
[6] = Table 3, concentration required to increase DNA binding by 1.5-fold
[7] = Figure 1, enhancement of DNA binding

COc1cc(S(C)(=O)=O)ccc1NCC#Cc1cc2c(N[C@@H]3CCN(C)C[C@H]3F)cccc2n1CC(F)(F)F (racemic) [Compound 19, Rac-N-[(3R,4R)-3-fluoro-1-methyl-4-piperidyl]-2-[3-(2-methoxy-4-methylsulfonyl-anilino)prop-1-ynyl]-1-(2,2,2-trifluoroethyl)indol-4-amine]
SC150 [1, 4]: 0.02 µM | IC50 ([2]; Table 2): 3000 nM

COc1cc(S(C)(=O)=O)ccc1NCC#Cc1cc2c(N[C@@H]3CCN(C)C[C@@H]3F)cccc2n1CC(F)(F)F (racemic) [Compound 20, Rac-N-[(3S,4R)-3-fluoro-1-methyl-4-piperidyl]-2-[3-(2-methoxy-4-methylsulfonyl-anilino)prop-1-ynyl]-1-(2,2,2-trifluoroethyl)indol-4-amine]
SC150 [1, 4]: 0.009 µM | IC50 ([2]; Table 2): 700 nM | fold higher potency in the MTT assay ([2]; among the two pairs of stereoisomers from fluorine substitution of compound 13): over 3 fold

CCn1c(C#CCNc2ccccc2)cc2cc(C(=O)NC3CCN(C)CC3)ccc21 [Compound 2, 2-(3-anilinoprop-1-ynyl)-1-ethyl-N-(1-methyl-4-piperidyl)indole-5-carboxamide]
SC150 [1, 5]: >150 µM

CCn1c(C#CCNc2ccccc2)cc2cc(CNC3CCOCC3)ccc21 [Compound 3, N-((1-ethyl-2-(3-(phenylamino)prop-1-yn-1-yl)-1H-indol-5-yl)methyl)tetrahydro-2H-pyran-4-amine]
SC150 [1, 5]: 26.5 µM

CCn1c(C#CCNc2ccc(C)nc2)cc2cc(CNC3CCOCC3)ccc21 [Compound 4, N-(3-(1-ethyl-5-(((tetrahydro-2H-pyran-4-yl)amino)methyl)-1H-indol-2-yl)prop-2-yn-1-yl)-6-methylpyridin-3-amine]
SC150 [1, 5]: 6.3 µM

CCn1c(C#CCNc2ccc(C(C)(C)C)nc2)cc2cc(CNC)ccc21 [Compound 5, 6-(tert-butyl)-3-(3-{1-ethyl-5-[(methylamino)methyl]-2-indolyl}-2-propynylamino)pyridine]
SC150 [1, 5]: 6.4 µM

CCn1c(C#CCNc2ccc(C(C)(C)C#N)nc2)cc2cc(CNC3CCOCC3)ccc21 [Compound 6, 2-(5-((3-(1-ethyl-5-(((tetrahydro-2H-pyran-4-yl)amino)methyl)-1H-indol-2-yl)prop-2-yn-1-yl)amino)pyridin-2-yl)-2-methylpropanenitrile]
SC150 [1, 5]: 1.3 µM

CC(C)(C#N)c1ccc(NCC#Cc2cc3cc(CNC4CCOCC4)ccc3n2CC(F)(F)F)cn1 [Compound 7, 2-methyl-2-(5-((3-(5-(((tetrahydro-2H-pyran-4-yl)amino)methyl)-1-(2,2,2-trifluoroethyl)-1H-indol-2-yl)prop-2-yn-1-yl)amino)pyridin-2-yl)propanenitrile]
SC150 [1, 5]: 0.48 µM

CC(C)(C#N)c1ccc(NCC#Cc2cc3c(CNC4CCOCC4)cccc3n2CC(F)(F)F)cn1 [Compound 8, 2-methyl-2-(5-((3-(4-(((tetrahydro-2H-pyran-4-yl)amino)methyl)-1-(2,2,2-trifluoroethyl)-1H-indol-2-yl)prop-2-yn-1-yl)amino)pyridin-2-yl)propanenitrile]
SC150 [1, 5]: 1.300 µM

CC(C)(C#N)c1ccc(NCC#Cc2cc3c(NC4CCOCC4)cccc3n2CC(F)(F)F)cn1 [Compound 9, 2-methyl-2-(5-((3-(4-((tetrahydro-2H-pyran-4-yl)amino)-1-(2,2,2-trifluoroethyl)-1H-indol-2-yl)prop-2-yn-1-yl)amino)pyridin-2-yl)propanenitrile]
SC150 [1, 5]: 0.105 µM

CN1CCC(Nc2cccc3c2cc(C#CCNc2ccc(C(C)(C)C#N)nc2)n3CC(F)(F)F)CC1 [Compound 10, 2-methyl-2-(5-((3-(4-((1-methylpiperidin-4-yl)amino)-1-(2,2,2-trifluoroethyl)-1H-indol-2-yl)prop-2-yn-1-yl)amino)pyridin-2-yl)propanenitrile]
SC150 [1, 5]: 0.054 µM

CN1CCC(Nc2cccc3c2cc(C#CCNc2ccc(S(C)(=O)=O)cc2)n3CC(F)(F)F)CC1 [Compound 11, N-(1-methylpiperidin-4-yl)-2-(3-((4-(methylsulfonyl)phenyl)amino)prop-1-yn-1-yl)-1-(2,2,2-trifluoroethyl)-1H-indol-4-amine]
SC150 [1, 5]: 0.027 µM

Cc1cc(S(C)(=O)=O)ccc1NCC#Cc1cc2c(NC3CCN(C)CC3)cccc2n1CC(F)(F)F [Compound 12, 2-[3-(2-methyl-4-methylsulfonyl-anilino)prop-1-ynyl]-N-(1-methyl-4-piperidyl)-1-(2,2,2-trifluoroethyl)indol-4-amine]
SC150 [1, 5]: 0.030 µM

CN1CCC(Nc2cccc3c2cc(C#CCNc2ccc(S(C)(=O)=O)cc2OC(F)(F)F)n3CC(F)(F)F)CC1 [Compound 14, N-(1-methyl-4-piperidyl)-2-[3-[4-methylsulfonyl-2-(trifluoromethoxy)anilino]prop-1-ynyl]-1-(2,2,2-trifluoroethyl)indol-4-amine]
SC150 [1, 5]: 0.030 µM

COc1cc(S(C)(=O)=O)ccc1NCC#Cc1cc2c(N[C@H]3CCN(C)C[C@H]3F)cccc2n1CC(F)(F)F [Compound 21, N-[(3R,4S)-3-fluoro-1-methyl-4-piperidyl]-2-[3-(2-methoxy-4-methylsulfonyl-anilino)prop-1-ynyl]-1-(2,2,2-trifluoroethyl)indol-4-amine]
SC150 [1, 4]: 0.02 µM | IC50 ([2]; Table 2): 2300 nM | Mouse PK Exposure AUC0-last ([3]; Table 2, PO): 23233 ng·h/mL | Mouse PK Exposure Cmax ([3]; Table 2, PO): 2353 ng/mL

COc1cc(S(N)(=O)=O)ccc1NCC#Cc1cc2c(N[C@@H]3CCN(C)C[C@@H]3F)cccc2n1CC(F)(F)F [Compound 23, 4-((3-(4-(((3S,4R)-3-fluoro-1-methylpiperidin-4-yl)amino)-1-(2,2,2-trifluoroethyl)-1H-indol-2-yl)prop-2-yn-1-yl)amino)-3-methoxybenzenesulfonamide]
SC150 [1, 6]: 0.009 µM | IC50 ([2]; Table 3): 261 nM | Mouse PK Exposure AUC0-last ([3]; Table 3, PO): 8066 ng·h/mL | Mouse PK Exposure Cmax ([3]; Table 3, PO): 1310 ng/mL

COc1cc(C(=O)N2CCN(C)CC2)ccc1NCC#Cc1cc2c(N[C@@H]3CCN(C)C[C@@H]3F)cccc2n1CC(F)(F)F [Compound 30, [4-[3-[4-[[(3S,4R)-3-fluoro-1-methyl-4-piperidyl]amino]-1-(2,2,2-trifluoroethyl)indol-2-yl]prop-2-ynyl-amino]-3-methoxy-phenyl]-(4-methylpiperazin-1-yl)methanone]
SC150 [1, 6]: 0.009 µM | IC50 ([2]; Table 3): 791 nM

COc1cc(C(=O)NC2CCN(C)CC2)ccc1NCC#Cc1cc2c(N[C@@H]3CCN(C)C[C@@H]3F)cccc2n1CC(F)(F)F [Compound 31, 4-[3-[4-[[(3S,4R)-3-fluoro-1-methyl-4-piperidyl]amino]-1-(2,2,2-trifluoroethyl)indol-2-yl]prop-2-ynyl-amino]-3-methoxy-N-(1-methyl-4-piperidyl)benzamide]
SC150 [1, 6]: 0.005 µM | IC50 ([2]; Table 3): 1160 nM

CCN(CC)C1CCN(Cc2cc(C#CCNc3ccccc3)cc(I)c2O)CC1 [PK1596, reference compound]
SC150 [1, 7]: 1.6 µM

CCn1c2ccccc2c2cc(CNC)ccc21 [PhiKan83, reference compound]
SC150 [1, 7]: 37.2 µM
